In ChEMBL document CHEMBL1201862, “PubChem BioAssay data set” (2004):
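A five-concentration, 48-hour dose response in 96-well plates underlies each endpoint, interpolated linearly between surrounding concentrations. GI50 is the concentration that inhibits growth by half.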 Calls of active or inactive are those of the source. Rule as the data show it: active = GI50 up to about 1.1 µM and inactive = higher.

What was measured:
Experiment in all cases: inhibition of tumour cell growth, NCI panel, 48 h
EKVX = tested on: EKVX
SF-268 = tested on: SF-268
NCI-H226 = tested on: NCI-H226
UACC-62 = tested on: UACC-62
MDA-N = tested on: MDA-N
Malme-3M = tested on: Malme-3M
MDA-MB-231 = tested on: MDA-MB-231
A549 = tested on: A549
SF-295 = tested on: SF-295
TK-10 = tested on: TK-10
HL-60 = tested on: HL-60
BT-549 = tested on: BT-549
786-0 = tested on: 786-0
KM12 = tested on: KM12
ACHN = tested on: ACHN
NCI/ADR-RES = tested on: NCI/ADR-RES
A498 = tested on: A498
LOX IMVI = tested on: LOX IMVI
OVCAR-8 = tested on: OVCAR-8
HT-29 = tested on: HT-29

| Compound | GI50 (EKVX) | GI50 (SF-268) | GI50 (NCI-H226) | GI50 (UACC-62) | GI50 (MDA-N) | GI50 (Malme-3M) | GI50 (MDA-MB-231) | GI50 (A549) | GI50 (SF-295) | GI50 (TK-10) | GI50 (HL-60) | GI50 (BT-549) | GI50 (786-0) | GI50 (KM12) | GI50 (ACHN) | GI50 (NCI/ADR-RES) | GI50 (A498) | GI50 (LOX IMVI) | GI50 (OVCAR-8) | GI50 (HT-29) |
| --- | --- | --- | --- | --- | --- | --- | --- | --- | --- | --- | --- | --- | --- | --- | --- | --- | --- | --- | --- | --- |
| O=c1[nH]cnc2c1ncn2C1SC(CO)C(O)C1O (centres undefined) | > 100 µM (inactive) | > 100 µM (inactive) | > 100 µM (inactive) | > 100 µM (inactive) | > 100 µM (inactive) | > 100 µM (inactive) | > 100 µM (inactive) | > 100 µM (inactive) | > 100 µM (inactive) | > 100 µM (inactive) | > 100 µM (inactive) | > 100 µM (inactive) | > 100 µM (inactive) | > 100 µM (inactive) | > 100 µM (inactive) | > 100 µM (inactive) | > 100 µM (inactive) | > 100 µM (inactive) | > 100 µM (inactive) | > 100 µM (inactive) |
| O=[As]O | > 60 µM (inactive) | > 47.1 µM (inactive) | > 48.3 µM (inactive) | > 39.1 µM (inactive) | > 100 µM (inactive) | 25.3 µM (inactive) | > 100 µM (inactive) | > 100 µM (inactive) | > 81.1 µM (inactive) | > 100 µM (inactive) | 9.82 µM (inactive) | 41.3 µM (inactive) | > 57.3 µM (inactive) | > 100 µM (inactive) | > 100 µM (inactive) | > 100 µM (inactive) | > 74.6 µM (inactive) | > 47.9 µM (inactive) | > 43.8 µM (inactive) | > 66.2 µM (inactive) |
| Cc1nc(-c2cc3cc(Cl)ccc3oc2=O)cc2c1c(=O)oc1ccc(Cl)cc12 | > 100 µM (inactive) | > 100 µM (inactive) | > 100 µM (inactive) | > 100 µM (inactive) | > 100 µM (inactive) | – | > 100 µM (inactive) | > 100 µM (inactive) | > 100 µM (inactive) | > 100 µM (inactive) | > 100 µM (inactive) | > 100 µM (inactive) | > 100 µM (inactive) | > 100 µM (inactive) | > 100 µM (inactive) | > 100 µM (inactive) | > 100 µM (inactive) | > 100 µM (inactive) | > 100 µM (inactive) | > 100 µM (inactive) |
| Cn1c(COC(=O)Nc2ccccc2)c(COC(=O)Nc2ccccc2)c2ccc3cc(Cl)c(Cl)cc3c21 | 15.9 µM (inactive) | 3.57 µM (inactive) | 13.4 µM (inactive) | 6.24 µM (inactive) | 8.07 µM (inactive) | 1.74 µM (inactive) | 3.33 µM (inactive) | 23.3 µM (inactive) | 18.7 µM (inactive) | 9.4 µM (inactive) | 2.46 µM (inactive) | 2.58 µM (inactive) | 2.76 µM (inactive) | 10.2 µM (inactive) | 8.79 µM (inactive) | 16.4 µM (inactive) | 1.65 µM (inactive) | 2.52 µM (inactive) | 6.73 µM (inactive) | 8.02 µM (inactive) |
| O=C(CSc1nc2ccc(Cl)cc2c(=O)n1-c1ccccc1)N/N=C1\C(=O)Nc2ccc(F)cc21 | 3 µM (inactive) | 2.82 µM (inactive) | 3.5 µM (inactive) | 2.39 µM (inactive) | 2.67 µM (inactive) | 3.57 µM (inactive) | 2.76 µM (inactive) | 2.37 µM (inactive) | 4.2 µM (inactive) | 4.21 µM (inactive) | 3.66 µM (inactive) | 1.85 µM (inactive) | 2.1 µM (inactive) | 3.13 µM (inactive) | 1.98 µM (inactive) | 2.65 µM (inactive) | 2.38 µM (inactive) | 1.78 µM (inactive) | 1.69 µM (inactive) | 2.2 µM (inactive) |
| COc1ccc(C2=Nc3c(nc(OC)[nH]c3=O)NC(c3ccccc3)C2)cc1 (centres undefined) | 33.9 µM (inactive) | – | 36.6 µM (inactive) | 42.8 µM (inactive) | 27 µM (inactive) | > 100 µM (inactive) | 20.7 µM (inactive) | 34.4 µM (inactive) | 50 µM (inactive) | – | 19.3 µM (inactive) | 31 µM (inactive) | 27.6 µM (inactive) | 18.2 µM (inactive) | 27.5 µM (inactive) | 24.8 µM (inactive) | 32.6 µM (inactive) | 26.6 µM (inactive) | 21.4 µM (inactive) | 28.4 µM (inactive) |
| N#CC(C#N)=CNC(N)=S | > 100 µM (inactive) | > 100 µM (inactive) | > 100 µM (inactive) | > 100 µM (inactive) | > 100 µM (inactive) | > 100 µM (inactive) | > 100 µM (inactive) | > 100 µM (inactive) | > 100 µM (inactive) | – | > 100 µM (inactive) | > 100 µM (inactive) | > 100 µM (inactive) | > 100 µM (inactive) | > 100 µM (inactive) | > 100 µM (inactive) | > 100 µM (inactive) | > 100 µM (inactive) | > 100 µM (inactive) | > 100 µM (inactive) |
| CN(C)Nc1cc(=O)[nH]c(=O)[nH]1 | > 100 µM (inactive) | > 100 µM (inactive) | > 100 µM (inactive) | – | > 100 µM (inactive) | > 100 µM (inactive) | > 100 µM (inactive) | > 100 µM (inactive) | > 100 µM (inactive) | > 100 µM (inactive) | > 100 µM (inactive) | > 100 µM (inactive) | > 100 µM (inactive) | > 100 µM (inactive) | > 100 µM (inactive) | > 100 µM (inactive) | > 100 µM (inactive) | > 100 µM (inactive) | > 100 µM (inactive) | > 100 µM (inactive) |
| CCc1ccc(/C=C\c2cc(OC)c(OC)c(OC)c2)cc1 | 0.887 µM (active) | 0.149 µM (active) | 0.024 µM (active) | 0.0132 µM (active) | 0.00168 µM (active) | 0.124 µM (active) | 0.144 µM (active) | 0.0223 µM (active) | 0.00631 µM (active) | 0.337 µM (active) | 0.0053 µM (active) | 0.18 µM (active) | < 0.0196 µM (active) | 0.0452 µM (active) | 0.0285 µM (active) | 0.00286 µM (active) | 0.014 µM (active) | 0.0132 µM (active) | 0.0456 µM (active) | 0.00993 µM (active) |
| O=c1[nH]c2c(c(=O)[nH]1)SSC2 | 21.3 µM (inactive) | 3.67 µM (inactive) | 19.4 µM (inactive) | 3.03 µM (inactive) | 1.66 µM (inactive) | 3.9 µM (inactive) | 2.18 µM (inactive) | 25.9 µM (inactive) | 18.5 µM (inactive) | 16 µM (inactive) | 1.99 µM (inactive) | 2.25 µM (inactive) | 4.89 µM (inactive) | 17.9 µM (inactive) | 26.5 µM (inactive) | 2.75 µM (inactive) | 25.7 µM (inactive) | 1.34 µM (inactive) | 4.16 µM (inactive) | 19.6 µM (inactive) |
| CC(C)=CCC[C@H](C)[C@H]1CC[C@@H](C)c2cc(O)c(C)cc21 | 17.6 µM (inactive) | 16.8 µM (inactive) | 18 µM (inactive) | 14.5 µM (inactive) | 17.4 µM (inactive) | 18.6 µM (inactive) | 18.2 µM (inactive) | 17.1 µM (inactive) | 16.9 µM (inactive) | 18.4 µM (inactive) | 21.1 µM (inactive) | 17.9 µM (inactive) | 18.6 µM (inactive) | 17.3 µM (inactive) | 16.8 µM (inactive) | 19.5 µM (inactive) | 16.6 µM (inactive) | 16.3 µM (inactive) | 18.5 µM (inactive) | 20.6 µM (inactive) |
| Nc1cc2c3c(c1)Oc1cc(N)cc4c1C3c1c(cc(N)cc1O4)O2 | 11.6 µM (inactive) | 12.5 µM (inactive) | 3.07 µM (inactive) | 26.4 µM (inactive) | 17.8 µM (inactive) | 6.32 µM (inactive) | 16.2 µM (inactive) | 32.5 µM (inactive) | 26.2 µM (inactive) | 41.7 µM (inactive) | 23.9 µM (inactive) | 15.2 µM (inactive) | 25.3 µM (inactive) | 22.9 µM (inactive) | 22 µM (inactive) | 6.32 µM (inactive) | 63.8 µM (inactive) | 17.9 µM (inactive) | 9.48 µM (inactive) | 25.3 µM (inactive) |
| CC(C)(C)OC(=O)/C=C/[C@@H](CCC(=O)/C=C/[C@H](/C=C\CCCC(=O)O)NC1(c2ccccc2)c2ccccc2-c2ccccc21)O[Si](C)(C)C(C)(C)C | 19.2 µM (inactive) | 17.1 µM (inactive) | 18.3 µM (inactive) | 13.9 µM (inactive) | 17.1 µM (inactive) | – | 14.1 µM (inactive) | 14.3 µM (inactive) | 15.5 µM (inactive) | 24.8 µM (inactive) | 24.8 µM (inactive) | 16.5 µM (inactive) | 16.1 µM (inactive) | 18.1 µM (inactive) | 17.8 µM (inactive) | 10.8 µM (inactive) | 19.2 µM (inactive) | 13.8 µM (inactive) | 18.1 µM (inactive) | 14.7 µM (inactive) |
| COC(=O)C(Cc1ccccc1)NP(=O)(O)OCC1OC(n2cc(Br)c(=O)[nH]c2=O)CC1O (centres undefined) | > 100 µM (inactive) | > 100 µM (inactive) | > 100 µM (inactive) | > 100 µM (inactive) | > 100 µM (inactive) | > 100 µM (inactive) | > 100 µM (inactive) | > 100 µM (inactive) | > 100 µM (inactive) | > 100 µM (inactive) | > 100 µM (inactive) | > 100 µM (inactive) | > 100 µM (inactive) | > 100 µM (inactive) | > 100 µM (inactive) | > 100 µM (inactive) | > 100 µM (inactive) | > 100 µM (inactive) | > 100 µM (inactive) | > 100 µM (inactive) |
